Experiment in all cases: NCI-60 cell line screen, 48 h
The subject of experiment [1] is MALME-3M melanoma.
Experiment [2] has as its system SNB-75 CNS.
Experiment [3] relates to MDA-MB-231 breast.
Experiment [4] deals with SW-620 colon.
Experiment [5] deals with OVCAR-4 ovarian.
Experiment [6] deals with SK-MEL-5 melanoma.
Experiment [7] concerns HOP-92 NSCLC.
In experiment [8] the test system is UO-31 renal.
Experiment [9] concerns OVCAR-3 ovarian.
The subject of experiment [10] is UACC-257 melanoma.
Experiment [11] concerns HT29 colon.
Experiment [12] has as its system MCF7 breast.
The subject of experiment [13] is BT-549 breast.
The test system of experiment [14] is NCI/ADR-RES ovarian.
Experiment [15] has as its system NCI-H460 lung.
In experiment [16] the test system is MDA-MB-435.
Experiment [17] deals with SK-OV-3 ovarian.
Experiment [18] has as its system CCRF-CEM leukemia.
The test system of experiment [19] is SNB-19 CNS.

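All cell lines were grown in 96-well plates and treated with compound for 48 hours. TGI is the concentration that stops growth completely.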

Take `CCOC(=O)C1C(c2ccc(OC)cc2)c2c([nH]n(-c3ccccc3)c2=O)CC1(O)OCC` (stereo not drawn): the TGI in experiment [1], in experiment [2], in [3], in experiment [4], in [5] and in experiment [6] was more than 100 µM each time. Moreover, the TGI in [7], in [8], in [9], in experiment [10], in experiment [11] and in experiment [12] was more than 100 µM in each case. Moreover, the TGI in experiment [13], in experiment [14], in [15] and in [16] was more than 100 µM throughout.
With `N#Cc1n[nH]n(C2CCCCC2)c1=O`, the TGI in experiment [1], in experiment [2], in [3], in experiment [4], in [5] and in [6] was more than 100 µM each time. In addition, the TGI in [17], in [8], in experiment [9], in experiment [10], in experiment [11] and in [12] was more than 100 µM throughout. Further, the TGI in experiment [13], in [14], in experiment [15], in experiment [18], in [16] and in experiment [19] was more than 100 µM in each case.
Turning to `O=S(=O)(N/N=C1\CC2CCC1C2)c1ccccc1` (stereo not drawn), the TGI in [1], in experiment [2], in experiment [4], in [5], in experiment [6] and in experiment [7] was more than 100 µM in each case. The TGI in experiment [17], in experiment [8], in experiment [9], in [10], in experiment [11] and in experiment [12] was more than 100 µM each time. In addition, the TGI in experiment [13], in experiment [14], in experiment [15], in experiment [18], in experiment [16] and in [19] was more than 100 µM throughout.
On to `COc1cc(/C=N/n2c(Cc3ccc(Cl)cc3)n[nH]c2=O)cc(OC)c1OC`, for which the TGI in experiment [1], in experiment [2], in experiment [3], in experiment [4], in experiment [5] and in experiment [17] was more than 100 µM each time. Further, the TGI in experiment [8], in experiment [9], in experiment [10], in experiment [11], in experiment [12] and in [13] was more than 100 µM in each case. Also, the TGI in experiment [14], in [15], in [18], in [16] and in experiment [19] was more than 100 µM each time.
For the compound `COCO[C@@H]1C[C@H]2C(=O)N(COC)c3ccccc3C(=O)N2C1`, the TGI in experiment [1], in experiment [2], in experiment [3], in experiment [4], in experiment [5] and in [6] was more than 100 µM throughout. For the same compound, the TGI in [17], in experiment [8], in [10], in experiment [11], in [12] and in [13] was more than 100 µM throughout. In addition, the TGI in experiment [14], in experiment [18], in experiment [16] and in experiment [19] was more than 100 µM each time.
For `COC(=O)[C@H](Cc1ccccc1)NC(=O)N1CCCN(C(=O)N[C@@H](Cc2ccccc2)C(=O)OC)CCCN(C(=O)N[C@@H](Cc2ccccc2)C(=O)OC)CCC1`, the TGI stood at 34.1 µM in [1]; 30.6 µM in experiment [2]; 39.7 µM in [4]; 54.7 µM in experiment [5]; 35.9 µM in experiment [6]; 30.3 µM in experiment [7]. The TGI in [17] was 73.9 µM; in experiment [8], 29.4 µM; in experiment [9] it was 32.4 µM; in [10], 35.5 µM; in [11], 33.5 µM; in experiment [12] it was 49.3 µM. Besides, the TGI came to 57.1 µM in experiment [13]; 74.7 µM in experiment [14]; 81.5 µM in experiment [15]; 92.8 µM in experiment [18]; 54.7 µM in experiment [16]; 74.8 µM in experiment [19].
Regarding `O=S(=O)(O)CCCC1S(=O)(=O)OCCOS1(=O)=O`, the TGI in [1], in experiment [2], in experiment [3], in [4], in [5] and in experiment [6] was more than 100 µM in each case. Also, the TGI in experiment [7], in experiment [17], in experiment [8], in experiment [9], in [10] and in experiment [11] was more than 100 µM throughout. The TGI in [12], in experiment [13], in experiment [14], in experiment [15], in experiment [16] and in [19] was more than 100 µM each time.
In the case of `Cc1ncc([N+](=O)[O-])n1CCN(C)C(=O)CCCn1ccnc1[N+](=O)[O-]`, the TGI in experiment [1], in [2], in [3], in experiment [4], in [5] and in [6] was more than 100 µM throughout. The TGI in experiment [17], in experiment [8], in experiment [9], in experiment [10], in experiment [11] and in experiment [12] was more than 100 µM in each case. Moreover, the TGI in experiment [13], in experiment [14], in experiment [15], in experiment [18] and in experiment [16] was more than 100 µM in each case.
As for `COC(=O)C1CCOC(C)N1C(=O)OC(C)(C)C` (stereo not drawn), the TGI in experiment [1], in experiment [2], in experiment [3], in experiment [4], in experiment [5] and in experiment [6] was more than 100 µM throughout. The TGI in experiment [17], in experiment [8], in [9], in experiment [10], in experiment [11] and in experiment [12] was more than 100 µM in each case. The TGI in experiment [13], in experiment [14], in experiment [15], in experiment [18], in experiment [16] and in experiment [19] was more than 100 µM each time.
On to `Cn1c(N)c(C(N)=O)[nH]c1=S`, for which the TGI in experiment [1], in experiment [2], in experiment [3], in experiment [4], in experiment [5] and in experiment [6] was more than 100 µM throughout. For the same compound, the TGI in experiment [17], in experiment [8], in experiment [9], in [11], in [12] and in experiment [13] was more than 100 µM in each case. The TGI in experiment [14], in [15], in experiment [18], in experiment [16] and in experiment [19] was more than 100 µM throughout.
On to `O=C1Cc2c([nH]c3c(Cl)cccc23)-c2ccccc2N1`, for which the TGI in experiment [1], in [2], in experiment [3], in experiment [4], in experiment [5] and in [6] was more than 100 µM each time. In addition, the TGI in [7], in experiment [17], in [8], in [9], in experiment [11] and in experiment [12] was more than 100 µM each time. The TGI in [13], in experiment [15], in experiment [18], in experiment [16] and in [19] was more than 100 µM in each case.
On to `COC(=O)[C@@H]1C=C[C@H](OC2OC(COC(C)=O)C(OC(C)=O)C(OC(C)=O)C2OC(C)=O)n2c(=O)c3ccccc3c(=O)n21` (stereo partly drawn), for which the TGI in experiment [1] was 39.6 µM; in experiment [2], 20.6 µM; in [4] it was 24.9 µM; in experiment [5] it was 34.6 µM; in [6], 30.2 µM; in experiment [7] it was 23.7 µM. Besides, the TGI came out at 28.2 µM in [17]; 27.5 µM in experiment [8]; 22.2 µM in experiment [9]; 51.2 µM in experiment [10]; 60.9 µM in [11]; 29.3 µM in [12]. The TGI in [13] worked out at 18.2 µM; in experiment [14], 56.7 µM; in [15] it was 29 µM; in experiment [18], 24.9 µM; in [16], 23 µM; in experiment [19] it was 47.2 µM.
On to `O=C1CCCC2C(O)CCC[C@H]12` (stereo partly drawn), for which the TGI in experiment [1], in experiment [2], in [3], in experiment [4], in experiment [5] and in experiment [6] was more than 100 µM in each case. Moreover, the TGI in experiment [17], in experiment [8], in experiment [10], in experiment [11], in [12] and in experiment [13] was more than 100 µM in each case. The TGI in [14], in experiment [15], in experiment [18] and in [19] was more than 100 µM each time.
Turning to `COc1ccc(/C=C2\C(=O)N(C)C(=O)c3cc(OC)c(OC)cc32)cc1OC`, the TGI in experiment [3] was more than 100 µM; in experiment [4], more than 100 µM; in [5], more than 100 µM; in experiment [6], 89.8 µM; in experiment [7] it was 75.5 µM; in experiment [8], more than 100 µM. Moreover, the TGI in [9] is more than 100 µM; in [10], more than 100 µM; in experiment [11], 34.2 µM; in experiment [12] it was more than 100 µM; in experiment [13] it was 55.6 µM; in experiment [15], more than 100 µM. Moreover, the figures for the TGI in [18], in experiment [16] and in experiment [19] were 69.7 µM, more than 100 µM and more than 100 µM, respectively.
For the compound `CC(C)(C)n1c(=O)[nH]n(C2NN=Cc3cccc4cccc2c34)c1=O` (stereo not drawn), the TGI in experiment [1] was more than 100 µM; in experiment [2] it was 85.6 µM; in experiment [3] it was more than 100 µM; in experiment [4], more than 100 µM; in experiment [5] it was more than 100 µM; in experiment [17], more than 100 µM. Also, the TGI is 70.3 µM in experiment [8]; more than 100 µM in experiment [9]; more than 100 µM in experiment [10]; 45.9 µM in experiment [11]; more than 100 µM in [12]; more than 100 µM in experiment [13]. In addition, the TGI in experiment [14] was more than 100 µM; in experiment [15], more than 100 µM; in [18], 63.6 µM; in experiment [16] it was more than 100 µM; in [19], more than 100 µM.
With `C=[N+](CNC(=O)CNC(=O)C(Cc1ccc([N+](=O)[O-])cc1)NC(=O)OC(C)(C)C)C(=O)CNC(=O)C(Cc1ccc([N+](=O)[O-])cc1)NC(=O)OC(C)(C)C` (stereo not drawn), the TGI in experiment [1] was more than 100 µM; in experiment [2] it was more than 100 µM; in experiment [3], 59 µM; in experiment [4], more than 100 µM; in [5] it was more than 100 µM; in experiment [6], more than 100 µM. In addition, the TGI in experiment [7], in [17], in [8], in experiment [9], in experiment [11] and in experiment [12] was more than 100 µM each time. In addition, the TGI in [13] was 85.5 µM; in experiment [14], more than 100 µM; in experiment [15], more than 100 µM; in [16] it was 62.7 µM; in [19], more than 100 µM.

The values above are taken from PubChem BioAssay (NCI).
